System: HBV viral production from HepAD38 cells
Experiment: Activity of test compounds on viral production from HepAD38 cells (viral load by qPCR of HBV core sequence in supernatant)
Format: cell-based
Conditions: Hepatitis B virus, 120 h, 5 days incubation, HBV DNA in supernatant by qPCR, top concentration 10 μM, read-out: Viral Load EC50 Activity range
Procedure, shortened: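 HepAD38 cells, 50,000/well in tetracycline-free 2% FBS medium, treated 5 days at 37° C. with compound from 10 μM top concentration. HBV DNA in supernatant quantified by TaqMan qPCR of core sequence against DNA standards, relative to DMSO wells; CellTiter-Glo viability read in parallel. EC50/CC50 from four-parameter logistic fit.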

`C#CCCN1C(C(=O)Nc2ccc(F)c(Cl)c2)CC(c2nccs2)NS1(=O)=O` (stereo not drawn) [HBV-CSU-090, Cis-2-(But-3-yn-1-yl)-N-(3-chloro-4-fluorophenyl)-5-(thiazol-2-yl)-1,2,6-thiadiazinane-3-carboxamide 1,1-dioxide] and `COCCCN1[C@H](C(=O)Nc2ccc(F)c(Cl)c2)C[C@H](c2nccs2)NS1(=O)=O` [HBV-CSU-077-ISO-II, Cis-N-(3-Chloro-4-fluorophenyl)-2-(3-methoxypropyl)-5-(thiazol-2-yl)-1,2,6-thiadiazinane-3-carboxamide 1,1-dioxide] cannot be ordered by EC50: less than 1 µM for the first, less than 1 µM for the second.

Compared with `CN1C(C(=O)Nc2ccc(F)c(Cl)c2)CC(c2ccc(C(N)=O)cc2)NS1(=O)=O` (racemic) [HBV-CSU-214, Cis-5-(4-Carbamoylphenyl)-N-(3-chloro-4-fluorophenyl)-2-methyl-1,2,6-thiadiazinane-3-carboxamide 1,1-dioxide], `CN1[C@H](C(=O)Nc2ccc(F)c(Cl)c2)C[C@H](c2ccc(C(=O)O)cc2)NS1(=O)=O` [HBV-CSU-218-ISO-I, Cis-4-(5-((3-Chloro-4-fluorophenyl)carbamoyl)-6-methyl-1,1-dioxido-1,2,6-thiadiazinan-3-yl)benzoic acid] is higher in EC50: less than 1 µM for the first, greater than 5 µM for the second. The first is the more potent here.

First: CN1[C@@H](C(=O)Nc2ccc(F)c(Cl)c2)C[C@@H](c2cc(Cc3ccccc3)cs2)NS1(=O)=O [HBV-CSU-149-ISO-II, Cis-(4-benzylthiophen-2-yl)-N-(3-chloro-4-fluorophenyl)-2-methyl-1,2,6-thiadiazinane-3-carboxamide 1,1-dioxide]
Second: CN1C(C(=O)Nc2ccc(F)c(Cl)c2)CC(c2cc(-c3ccc(F)cc3)cs2)NS1(=O)=O (centres unmarked) [HBV-CSU-239]
The EC50 of the first is higher: 1 to 5 µM for the first, less than 1 µM for the second. The second is the more potent here.

Compared with `CN1[C@@H](C(=O)Nc2ccc(F)c(Br)c2)C[C@@H](c2nccs2)NS1(=O)=O` [HBV-CSU-060-ISO-I, Cis-N-(3-bromo-4-fluorophenyl)-2-methyl-5-(thiazol-2-yl)-1,2,6-thiadiazinane-3-carboxamide 1,1-dioxide], `CN1[C@H](C(=O)Nc2ccc(F)c(Br)c2)C[C@H](c2ncc(Br)s2)NS1(=O)=O` [HBV-CSU-383, (3S,5R)—N-(3-bromo-4-fluorophenyl)-5-(5-bromothiazol-2-yl)-2-methyl-1,2,6-thiadiazinane-3-carboxamide 1,1-dioxide] is lower in EC50: greater than 5 µM for the first, less than 1 µM for the second. The second is the more potent here.

`CN1C(C(=O)Nc2ccc(F)c(Cl)c2)CC(c2ccc3c(c2)ncn3C)NS1(=O)=O` (racemic) [HBV-CSU-360, Cis-N-(3-chloro-4-fluorophenyl)-2-methyl-5-(1-methyl-1H-benzo[d]imidazol-5-yl)-1,2,6-thiadiazinane-3-carboxamide 1,1-dioxide] and `CN1[C@@H](C(=O)Nc2ccc(F)c(Cl)c2)C[C@@H](c2cccc(-c3cnn(C)c3)c2)NS1(=O)=O` [HBV-CSU-247-ISO-II, Cis-N-(3-chloro-4-fluorophenyl)-2-methyl-5-(3-(1-methyl-1H-pyrazol-4-yl)phenyl)-1,2,6-thiadiazinane-3-carboxamide 1,1-dioxide] cannot be ordered by EC50: less than 1 µM for the first, less than 1 µM for the second.

First: CN1[C@@H](C(=O)Nc2ccc(F)c(Cl)c2)C[C@@H](c2cc(-c3ccn(C)n3)cs2)NS1(=O)=O [HBV-CSU-288-ISO-II, Cis-N-(3-Chloro-4-fluorophenyl)-2-methyl-5-(4-(1-methyl-1H-pyrazol-3-yl)thiophen-2-yl)-1,2,6-thiadiazinane-3-carboxamide 1,1-dioxide]
Second: CN1[C@H](C(=O)Nc2ccc(F)c(Cl)c2)C[C@H](c2cc(-c3ccn(C)n3)cs2)NS1(=O)=O [HBV-CSU-288-ISO-I, Cis-N-(3-Chloro-4-fluorophenyl)-2-methyl-5-(4-(1-methyl-1H-pyrazol-3-yl)thiophen-2-yl)-1,2,6-thiadiazinane-3-carboxamide 1,1-dioxide]
The EC50 of the first is higher: 1 to 5 µM for the first, less than 1 µM for the second.

First: [2H]C([2H])([2H])N1[C@@H](C(=O)Nc2ccc(F)c(Cl)c2)CC(c2ccc(-c3cn(C)cn3)s2)NS1(=O)=O (stereo in doubt) [HBV-CSU-373-ISO-II, Cis-N-(3-Chloro-4-fluorophenyl)-2-(methyl-d3)-5-(5-(1-methyl-1H-imidazol-4-yl)thiophen-2-yl)-1,2,6-thiadiazinane-3-carboxamide 1,1-dioxide]
Second: [2H]C([2H])([2H])N1[C@@H](C(=O)Nc2ccc(F)c(Cl)c2)C[C@@H](c2ncc(-c3cn(C)cn3)s2)NS1(=O)=O (relative stereo) [HBV-CSU-338-ISO-II, Cis-N-(3-Chloro-4-fluorophenyl)-2-(methyl-d3)-5-(5-(1-methyl-1H-imidazol-4-yl)thiazol-2-yl)-1,2,6-thiadiazinane-3-carboxamide 1,1-dioxide]
The EC50 of the first is lower: less than 1 µM for the first, 1 to 5 µM for the second. The first is the more potent here.

Compared with `[2H]C1[C@]([2H])(C(=O)Nc2ccc(F)c(Cl)c2)N(C([2H])([2H])[2H])S(=O)(=O)N[C@]1([2H])c1ccc(Br)s1` (stereo in doubt) [HBV-CSU-372-ISO-II, Cis-5-(5-bromothiophen-2-yl)-N-(3-chloro-4-fluorophenyl)-2-(methyl-d3)-1,2,6-thiadiazinane-3,4,5-d3-3-carboxamide 1,1-dioxide], `[2H]C1C([2H])(c2ccc(Br)s2)NS(=O)(=O)N(C)C1([2H])C(=O)Nc1ccc(F)c(Cl)c1` (stereo not drawn) [HBV-CSU-371, Cis-5-(5-Bromothiophen-2-yl)-N-(3-chloro-4-fluorophenyl)-2-methyl-1,2,6-thiadiazinane-3,4,5-d3-3-carboxamide 1,1-dioxide] is lower in EC50: 1 to 5 µM for the first, less than 1 µM for the second. The second is the more potent here.

Compared with `CCn1cc(-c2ccc([C@H]3C[C@@H](C(=O)Nc4ccc(F)c(Cl)c4)N(C)S(=O)(=O)N3)s2)cn1` [HBV-CSU-291-ISO-I, Cis-N-(3-chloro-4-fluorophenyl)-5-(5-(1-ethyl-1H-pyrazol-4-yl)thiophen-2-yl)-2-methyl-1,2,6-thiadiazinane-3-carboxamide 1,1-dioxide], `CN1[C@@H](C(=O)Nc2ccc(F)c(Cl)c2)C[C@@H](c2ccc(-c3ncnn3C)s2)NS1(=O)=O` [HBV-CSU-323-ISO-II, Cis-N-(3-Chloro-4-fluorophenyl)-2-methyl-5-(5-(1-methyl-1H-1,2,4-triazol-5-yl)thiophen-2-yl)-1,2,6-thiadiazinane-3-carboxamide 1,1-dioxide] is higher in EC50: less than 1 µM for the first, 1 to 5 µM for the second. The first is the more potent here.

First: CN1[C@@H](C(=O)Nc2ccc(F)c(Cl)c2)C[C@@H](c2cc(-c3cncs3)cs2)NS1(=O)=O [HBV-CSU-286-ISO-II, Cis-N-(3-Chloro-4-fluorophenyl)-2-methyl-5-(4-(thiazol-5-yl)thiophen-2-yl)-1,2,6-thiadiazinane-3-carboxamide 1,1-dioxide]
Second: Cc1nn(C)cc1-c1csc([C@H]2C[C@@H](C(=O)Nc3ccc(F)c(Cl)c3)N(C)S(=O)(=O)N2)c1 [HBV-CSU-316-ISO-I, Cis-N-(3-chloro-4-fluorophenyl)-5-(4-(1,3-dimethyl-1H-pyrazol-4-yl)thiophen-2-yl)-2-methyl-1,2,6-thiadiazinane-3-carboxamide 1,1-dioxide]
The EC50 of the first is higher: 1 to 5 µM for the first, less than 1 µM for the second.

`CN1[C@H](C(=O)Nc2ccc(F)c(Cl)c2)C[C@H](c2ccon2)NS1(=O)=O` [HBV-CSU-055-ISO-I, Cis-N-(3-chloro-4-fluorophenyl)-5-(isoxazol-3-yl)-2-methyl-1,2,6-thiadiazinane-3-carboxamide 1,1-dioxide] and `CN1[C@H](C(=O)Nc2ccc(F)c(Cl)c2)C[C@H](c2ncc(-c3ccc(F)cn3)s2)NS1(=O)=O` [HBV-CSU-252-ISO-I, Cis-N-(3-Chloro-4-fluorophenyl)-5-(5-(5-fluoropyridin-2-yl)thiazol-2-yl)-2-methyl-1,2,6-thiadiazinane-3-carboxamide 1,1-dioxide] cannot be ordered by EC50: less than 1 µM for the first, less than 1 µM for the second.

`[2H]C1[C@]([2H])(c2ncc(-c3cn(C([2H])([2H])[2H])cn3)s2)NS(=O)(=O)N(C)[C@]1([2H])C(=O)Nc1ccc(F)c(Cl)c1` (stereo in doubt) [HBV-CSU-341-ISO-I, Cis-N-(3-Chloro-4-fluorophenyl)-2-methyl-5-(5-(1-(methyl-d3)-1H-imidazol-4-yl)thiazol-2-yl)-1,2,6-thiadiazinane-3,4,5-d3-3-carboxamide 1,1-dioxide] and `[2H]C1[C@]([2H])(c2ccc(-c3cn(C)cn3)s2)NS(=O)(=O)N(C)[C@]1([2H])C(=O)Nc1ccc(F)c(Cl)c1` (stereo in doubt) [HBV-CSU-375-ISO-I, Cis-N-(3-Chloro-4-fluorophenyl)-2-methyl-5-(5-(1-methyl-1H-imidazol-4-yl)thiophen-2-yl)-1,2,6-thiadiazinane-3,4,5-d3-3-carboxamide 1,1-dioxide] cannot be ordered by EC50: less than 1 µM for the first, less than 1 µM for the second.

First: CCOCCN1[C@@H](C(=O)Nc2ccc(F)c(Cl)c2)C[C@@H](c2nccs2)NS1(=O)=O [HBV-CSU-142-ISO-I, Cis-N-(3-Chloro-4-fluorophenyl)-2-(2-ethoxyethyl)-5-(thiazol-2-yl)-1,2,6-thiadiazinane-3-carboxamide 1,1-dioxide]
Second: COCCN1[C@@H](c2cccs2)C[C@@H](C(=O)Nc2ccc(F)c(Cl)c2)NS1(=O)=O [HBV-CSU-044-ISO-II, Cis-N-(3-Chloro-4-fluorophenyl)-6-(2-methoxyethyl)-5-(thiophen-2-yl)-1,2,6-thiadiazinane-3-carboxamide 1,1-dioxide]
The EC50 of the first is lower: 1 to 5 µM for the first, greater than 5 µM for the second. The first is the more potent here.

First: CN1C(C(=O)Nc2ccc(F)c(Cl)c2)CC(c2ccc(OC(F)(F)F)cc2)NS1(=O)=O (racemic) [HBV-CSU-232, Cis-N-(3-Chloro-4-fluorophenyl)-2-methyl-5-(4-(trifluoromethoxy)phenyl)-1,2,6-thiadiazinane-3-carboxamide 1,1-dioxide]
Second: CN1[C@@H](C(=O)Nc2ccc(F)c(Cl)c2)C[C@@H](c2cc(-c3ccc(C#N)c(F)c3)cs2)NS1(=O)=O [HBV-CSU-164-ISO-II, Cis-N-(3-chloro-4-fluorophenyl)-5-(4-(4-cyano-3-fluorophenyl)thiophen-2-yl)-2-methyl-1,2,6-thiadiazinane-3-carboxamide 1,1-dioxide]
The EC50 of the first is lower: less than 1 µM for the first, greater than 5 µM for the second.

With `CN1C(C(=O)Nc2ccc(F)c(Cl)c2)CC(c2cccs2)N(C)S1(=O)=O` (stereo not drawn) [HBV-CSU-023, Cis-N-(3-Chloro-4-fluorophenyl)-2,6-dimethyl-5-(thiophen-2-yl)-1,2,6-thiadiazinane-3-carboxamide 1,1-dioxide] the EC50 was 1 to 5 µM.

Source: patent publication US11078170B2 (Assembly Biosciences, Inc., priority 2017, dated 2021)
